The subject of the assay is BDF1 mice, intracerebral L1210 leukemia, survival T/C. The assay is described as follows: NCI In Vivo Anticancer Drug Screen. Data for tumor model L1210 Leukemia (intracerebral) in B6D2F1 (BDF1) mice. The settings on record: higher = longer survival. How it is done: The antitumor activity of compounds was measured in mice bearing transplantable tumors. Survival or tumor size were measured and the results are expressed as the measurement made in the treated group (T) divided by the measurement made in the vehicle treated control group (C). The tumor model used in this assay is L1210 Leukemia (intracerebral) in B6D2F1 (BDF1) mice

Setting [1] is: endpoint: mean survival time, dose: 100.0 mg/kg/injection, schedule: Q04DX003 (ip), vehicle: saline.

Several values for one entry are separate records, joined by “and”; a condition that tells them apart may be missing. Equal entries are not always repeated. Toxic doses and inconclusive results are not listed.

Turning to `OCCN1CCN(CCCN2c3ccccc3Sc3ccc(C(F)(F)F)cc32)CC1`, the T/C runs as follows: (endpoint: mean survival time, dose: 12.5 mg/kg/injection, schedule: Q04DX003 (ip), vehicle: saline) 102 % of control; (endpoint: mean survival time, dose: 25.0 mg/kg/injection, schedule: Q04DX003 (ip), vehicle: saline) 106 % of control; (endpoint: mean survival time, dose: 50.0 mg/kg/injection, schedule: Q04DX003 (ip), vehicle: saline) 112 % of control; under setting [1], 94 % of control.

For `O=NN(CCCl)C(=O)N[C@H]1CCC[C@@H](O)C1`, the T/C was 124 % of control (endpoint: mean survival time, dose: 12.0 mg/kg/injection, schedule: Q01DX001 (ip), vehicle: saline with Tween-80); 164 % of control (endpoint: mean survival time, dose: 18.0 mg/kg/injection, schedule: Q01DX001 (ip), vehicle: saline with Tween-80); 420 % of control (endpoint: mean survival time, dose: 26.0 mg/kg/injection, schedule: Q01DX001 (ip), vehicle: saline with Tween-80); 452 % of control (endpoint: mean survival time, dose: 40.0 mg/kg/injection, schedule: Q01DX001 (ip), vehicle: saline with Tween-80); 303 % of control (endpoint: mean survival time, dose: 60.0 mg/kg/injection, schedule: Q01DX001 (ip), vehicle: saline with Tween-80); 90 % of control (endpoint: mean survival time, dose: 90.0 mg/kg/injection, schedule: Q01DX001 (ip), vehicle: saline with Tween-80).

In the case of `COc1cc([C@@H]2c3cc4c(cc3[C@@H](OC3OC5COC(C)OC5C(O)C3O)[C@H]3COC(=O)[C@H]23)OCO4)cc(OC)c1O` (some centres not stated), the T/C runs as follows: (endpoint: mean survival time, dose: 2.0 mg/kg/injection, schedule: Q01DX009 (oral), vehicle: Klucel (hydroxypropylcellulose) (HPC)) 108 % of control; (endpoint: mean survival time, dose: 4.0 mg/kg/injection, schedule: Q01DX009 (oral), vehicle: Klucel (hydroxypropylcellulose) (HPC)) 118 % of control; (endpoint: mean survival time, dose: 12.0 mg/kg/injection, schedule: Q04DX003 (ip), vehicle: saline) 109 % of control; (endpoint: mean survival time, dose: 16.0 mg/kg/injection, schedule: Q01DX009 (oral), vehicle: Klucel (hydroxypropylcellulose) (HPC)) 116 % of control; (endpoint: mean survival time, dose: 18.0 mg/kg/injection, schedule: Q04DX003 (ip), vehicle: saline) 108 % of control; (endpoint: mean survival time, dose: 27.0 mg/kg/injection, schedule: Q04DX003 (ip), vehicle: saline) 109 % of control. In addition, the T/C reads like this: (endpoint: mean survival time, dose: 32.0 mg/kg/injection, schedule: Q01DX009 (oral), vehicle: Klucel (hydroxypropylcellulose) (HPC)) 94 % of control; (endpoint: mean survival time, dose: 40.0 mg/kg/injection, schedule: Q04DX003 (ip), vehicle: saline) 118 % of control; (endpoint: mean survival time, dose: 60.0 mg/kg/injection, schedule: Q04DX003 (ip), vehicle: saline) 110 % of control.

As to `COC(=O)c1ccccc1N=NN(C)C`, the T/C was 114 % of control (endpoint: median survival time, dose: 10.0 mg/kg/injection, schedule: Q01DX009 (ip), vehicle: saline with Tween-80) and 97 % of control (endpoint: median survival time, dose: 20.0 mg/kg/injection, schedule: Q01DX009 (ip), vehicle: saline with Tween-80).

Take `O=NN(CCCl)C(=O)Nc1ccc(C(F)(F)F)cc1`: the T/C reads like this: (endpoint: mean survival time, dose: 37.0 mg/kg/injection, schedule: Q01DX001 (ip), vehicle: carboxymethylcellulose (CMC)) 110 % of control; (endpoint: mean survival time, dose: 50.0 mg/kg/injection, schedule: Q01DX001 (ip), vehicle: carboxymethylcellulose (CMC)) 110 % of control; (endpoint: mean survival time, dose: 75.0 mg/kg/injection, schedule: Q01DX001 (ip), vehicle: carboxymethylcellulose (CMC)) 118 % of control; (endpoint: mean survival time, dose: 112.0 mg/kg/injection, schedule: Q01DX001 (ip), vehicle: carboxymethylcellulose (CMC)) 92 % of control.

Regarding `Cc1cccc2c(Nc3ccc(NS(C)(=O)=O)cc3)c3ccccc3nc12`, the T/C (endpoint: mean survival time, dose: 10.0 mg/kg/injection, schedule: Q01DX009 (ip), vehicle: saline) was 100 % of control; the T/C (endpoint: mean survival time, dose: 10.0 mg/kg/injection, schedule: Q01DX009 (sc), vehicle: saline) was 96 % of control; the T/C (endpoint: mean survival time, dose: 20.0 mg/kg/injection, schedule: Q01DX009 (ip), vehicle: saline) is 110 % of control; the T/C (endpoint: mean survival time, dose: 20.0 mg/kg/injection, schedule: Q01DX009 (sc), vehicle: saline) was 101 % of control; the T/C (endpoint: mean survival time, dose: 40.0 mg/kg/injection, schedule: Q01DX009 (ip), vehicle: saline) was 112 % of control; the T/C (endpoint: mean survival time, dose: 40.0 mg/kg/injection, schedule: Q01DX009 (sc), vehicle: saline) was 97 % of control. Also, the T/C was 87 % of control (endpoint: mean survival time, dose: 80.0 mg/kg/injection, schedule: Q01DX009 (ip), vehicle: saline) and 104 % of control (endpoint: mean survival time, dose: 80.0 mg/kg/injection, schedule: Q01DX009 (sc), vehicle: saline).

Regarding `C#CCOCC(CCl)OC(=O)Nc1ccccc1` (configuration not stated), the T/C (endpoint: mean survival time, dose: 25.0 mg/kg/injection, schedule: Q04DX003 (ip), vehicle: saline with Tween-80) was 100 % of control; the T/C (endpoint: mean survival time, dose: 50.0 mg/kg/injection, schedule: Q04DX003 (ip), vehicle: saline with Tween-80) was 115 % of control; the T/C (endpoint: mean survival time, dose: 100.0 mg/kg/injection, schedule: Q04DX003 (ip), vehicle: saline with Tween-80) was 105 % of control; the T/C (endpoint: mean survival time, dose: 200.0 mg/kg/injection, schedule: Q04DX003 (ip), vehicle: saline with Tween-80) is 109 % of control; the T/C (endpoint: mean survival time, dose: 400.0 mg/kg/injection, schedule: Q04DX003 (ip), vehicle: saline with Tween-80) was 105 % of control.

With `NCCc1ccc(O)c(O)c1`, the T/C runs as follows: under setting [1], 102 % of control; (endpoint: mean survival time, dose: 200.0 mg/kg/injection, schedule: Q04DX003 (ip), vehicle: saline) 95 % of control; (endpoint: mean survival time, dose: 400.0 mg/kg/injection, schedule: Q04DX003 (ip), vehicle: saline) 98 % of control; (endpoint: mean survival time, dose: 800.0 mg/kg/injection, schedule: Q04DX003 (ip), vehicle: saline) 97 % of control.

As to `CS(C)=O`, the T/C was 102 % of control (endpoint: mean survival time, dose: 0.5 mg/kg/injection, schedule: Q#C X009 (adlb), vehicle: water); 102 % of control (endpoint: mean survival time, dose: 1.0 mg/kg/injection, schedule: Q#C X009 (adlb), vehicle: water); 101 % of control (endpoint: mean survival time, dose: 2.0 mg/kg/injection, schedule: Q#C X009 (adlb), vehicle: water); 101 % of control (endpoint: mean survival time, dose: 4.0 mg/kg/injection, schedule: Q#C X009 (adlb), vehicle: water); 98 % of control (endpoint: mean survival time, dose: 8.0 mg/kg/injection, schedule: Q#C X009 (adlb), vehicle: water); 110 % of control (endpoint: mean survival time, dose: 10.0 mg/kg/injection, schedule: Q01DX001 (ip), vehicle: DMSO). Further, the T/C reads like this: (endpoint: mean survival time, dose: 25.0 mg/kg/injection, schedule: Q01DX001 (ip), vehicle: DMSO) 101 % of control; (endpoint: mean survival time, dose: 35.0 mg/kg/injection, schedule: Q01DX001 (ip), vehicle: DMSO) 101 % of control; (endpoint: mean survival time, dose: 50.0 mg/kg/injection, schedule: Q01DX001 (ip), vehicle: DMSO) 101 % of control; (endpoint: mean survival time, dose: 0.5 % drug in feed or water or air, schedule: Q#C X009 (oral), vehicle: other) 102 % of control; (endpoint: mean survival time, dose: 1.0 % drug in feed or water or air, schedule: Q#C X009 (oral), vehicle: other) 102 % of control; (endpoint: mean survival time, dose: 1.0 grams/kg/injection, schedule: Q01DX001 (ip), vehicle: Klucel (hydroxypropylcellulose) (HPC)) 110 % of control. Moreover, the T/C was 101 % of control (endpoint: mean survival time, dose: 2.0 % drug in feed or water or air, schedule: Q#C X009 (oral), vehicle: other); 101 % of control (endpoint: mean survival time, dose: 2.1 grams/kg/injection, schedule: Q01DX001 (ip), vehicle: Klucel (hydroxypropylcellulose) (HPC)); 101 % of control (endpoint: mean survival time, dose: 4.0 % drug in feed or water or air, schedule: Q#C X009 (oral), vehicle: other); 98 % of control (endpoint: mean survival time, dose: 8.0 % drug in feed or water or air, schedule: Q#C X009 (oral), vehicle: other); 103 % of control and 118 % of control (endpoint: median survival time, dose: 1.0 mg/kg/injection, schedule: Q#C X009 (oral), vehicle: water); 101 % of control (2×) and 105 % of control (endpoint: median survival time, dose: 2.0 mg/kg/injection, schedule: Q#C X009 (oral), vehicle: water). Moreover, the T/C runs as follows: (endpoint: median survival time, dose: 4.0 mg/kg/injection, schedule: Q#C X009 (oral), vehicle: water) 103 % of control and 107 % of control and 98 % of control; (endpoint: median survival time, dose: 8.0 mg/kg/injection, schedule: Q#C X009 (oral), vehicle: water) 101 % of control and 83 % of control and 97 % of control.

These data come from PubChem BioAssay AID252 (DTP/NCI, 2004).
